The assay is described as follows: Inhibition of Src-transformed fibroblast cell proliferation.

Each structure is given as a SMILES string. pIC50: −log10 of the molar value.

The term pIC50 denotes the IC50 on a negative log10 scale, so that one unit is a factor of ten. Read a low pIC50 as a high IC50. The molecule `COc1cc(Nc2c(C#N)cnc3cc(OC)c(OC)cc23)c(C)cc1Cl` gave a pIC50 of 5.62.

Values taken from BindingDB's records for doi:10.1016/s0960-894x(01)00776-4 (Wyeth-Ayerst Research, 2002).
